Structures are written as SMILES. Where “and” joins values, the source holds several entries; their conditions need not be identical. Identical values can stand only once.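 Growth conditions: 96-well plates. Treatment: test compound, 48 hours, 5 concentrations. Analysis: linear interpolation between bracketing concentrations; unreached endpoints set to highest concentration. Abbreviation: GI50, concentration required for 50% inhibition of growth. Definition used: TGI = concentration required for complete inhibition of growth.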 Where a SMILES comes first, the peptide text is derived from it. [ ]: non-standard residue; d: D form. 2Nal = N[CH](Cc1ccc2ccccc2c1)C(=O)O

Common to all, as to test: NCI anticancer screen, dose series, 48 h
Assay [1] relates to SNB-19 CNS.
Assay [2] relates to HL-60(TB) leukemia.
Assay [3] concerns SF-295 CNS.
In assay [4] the test system is M19-MEL melanoma.
The test system of assay [5] is MOLT-4 leukemia.
The test system of assay [6] is HOP-92 NSCLC.
In assay [7] the test system is HOP-18 NSCLC.
In assay [8] the test system is LXFL 529 NSCLC.
Assay [9] concerns DLD-1 colon.
Assay [10] has as its system NCI-H460 lung.
The subject of assay [11] is HCT-15 colon.
The subject of assay [12] is MDA-MB-231 breast.

For `CCCCCCCCCCCCCCCCCC(=O)NCCCNCCCNC(=O)CCCCCCCCCCCCCCCCC`, the TGI in assay [1], in [2], in [3], in assay [4], in [5] and in assay [6] was > 100 µM each time. Also, the TGI in [7], in assay [8], in [9], in assay [10] and in assay [11] was > 100 µM throughout.
In the case of `CN/N=C(\C)CC(=O)Nc1cccc(Cl)c1C`, the TGI in assay [1], in assay [2], in [3], in [4], in assay [5] and in assay [6] was > 100 µM each time. Besides, the TGI in assay [7], in [8], in assay [9], in [10] and in assay [11] was > 100 µM in each case.
As to `COC(=O)C(C(=O)C(=O)Nc1ccccc1OC)c1csc(-n2nc(-c3ccccc3)cc2-c2ccccc2)n1` (stereo not given), the TGI in [1], in [2], in [4], in assay [5], in assay [6] and in assay [7] was > 100 µM throughout. Besides, the TGI in assay [8], in assay [9], in assay [10] and in assay [11] was > 100 µM throughout.
Take `CCC(=S)N(C)O`: the TGI in [1] is > 100 µM; in assay [2], 13.6 µM; in assay [12], > 100 µM; in assay [3], > 100 µM; in assay [4] it was > 51.7 µM; in [5] it was 46.9 µM. For the same compound, the TGI in assay [6] is > 100 µM; in [8] it was > 100 µM; in assay [9], > 100 µM; in [10], 70.3 µM; in assay [11], > 100 µM.
As for `Cc1ccc(C(=O)/C=C/c2ccccc2Cl)cc1`, the TGI in [1] is 32.5 µM; in assay [2], 42.8 µM; in assay [3], 39.8 µM; in assay [4], 33.5 µM; in assay [5] it was 56.1 µM; in assay [6], 63.5 µM. Further, the TGI is 76.1 µM in [7]; 28.7 µM in [8]; 36 µM in [9]; 29.1 µM in assay [10]; 29.1 µM in assay [11].
In the case of `O=C(Nc1cc(C(F)(F)F)ccc1Cl)C(=O)C(C(=O)c1ccc2ccccc2c1)C1OC(=O)c2ccccc21` (stereo not given), the TGI was found to be 20.6 µM in assay [1]; 37.3 µM in assay [2]; 27.6 µM in [3]; 46.4 µM in [4]; 9.16 µM in assay [5]; 28.1 µM in assay [6]. In addition, the TGI in assay [8] was found to be 20.5 µM; in [9], 36.3 µM; in assay [10], 20.7 µM; in [11], 30.1 µM.
In the case of `CC1CC(=O)C(C(O)CC2CC(=O)N(c3ccccc3)C(=O)C2)C(C)C1` (stereo not given), the TGI in [1], in [2], in [3], in assay [4], in [5] and in assay [6] was > 100 µM in each case. Further, the TGI in assay [7], in assay [8], in assay [9] and in assay [10] was > 100 µM throughout.
As for `CN(C)CC1(C)CC/C(=C\c2ccc3c(c2)OCO3)C1=O` (stereo not given), the TGI in [1], in assay [3], in assay [4], in assay [5], in assay [6] and in assay [7] was > 100 µM throughout. Also, the TGI in assay [8], in assay [9], in [10] and in assay [11] was > 100 µM each time.
On to `CC(NC(=O)C(N)Cc1ccccc1)C(=O)NC(Cc1ccc(O)cc1)C(=O)NC(Cc1c[nH]c2ccccc12)C(=O)NC(CCCCN)C(=O)NC(C(=O)NC(C)C(=O)NC(Cc1ccc2ccccc2c1)C(N)=O)C(C)C` (stereo not given) (H-FAYWKVA[2Nal]-NH2; configuration not given here), for which the TGI in assay [1] was 71.1 µM; in assay [2], > 12.5 µM and 31.9 µM; in assay [12], > 12.5 µM; in assay [3], > 12.5 µM; in assay [4], 74 µM; in assay [5], 32 µM. For the same compound, the TGI was 46.3 µM in assay [7]; > 100 µM in assay [9]; > 12.5 µM and 52.3 µM in assay [10]; > 12.5 µM and 61.8 µM in assay [11]. Also, the GI50 was 18 µM in assay [2], 16.7 µM in assay [5], 22.7 µM in [10] and 22.1 µM in assay [11].
For the compound `CC(=O)O[C@H]1CCC2[C@@H]3CCC4C(=O)c5oncc5C[C@]4(C)C3CC[C@@]21C` (stereo not given in full), the TGI in [2], in [3], in assay [4], in assay [5], in assay [6] and in assay [8] was > 100 µM each time. The TGI in [9], in assay [10] and in assay [11] was > 100 µM in each case.
For `O=C(C#Cc1c[nH]c(=O)[nH]c1=O)c1ccccc1`, the TGI in assay [1] was 32 µM; in assay [2], 14.3 µM; in assay [3] it was > 100 µM; in assay [4] it was 27.1 µM; in assay [5], 7.96 µM; in assay [6] it was 27 µM. Moreover, the TGI in assay [7] is 29.2 µM; in assay [9], 23.4 µM; in assay [10] it was 28.6 µM; in assay [11], 24.9 µM.
On to `O=C1OC(=O)C2C3CCC(O3)C12` (stereo not given), for which the TGI in [1], in [2], in assay [3], in [4], in [5] and in assay [6] was > 100 µM throughout. Besides, the TGI in assay [7], in [8], in assay [9] and in [10] was > 100 µM each time.
On to `CCCCCN(CCCCC)C(=O)[C@@H](CCC(=O)OCc1ccccc1)NC(=O)c1cc2ccccc2[nH]1`, for which the TGI in assay [1], in assay [3], in [6], in assay [7], in [8] and in assay [9] was > 100 µM in each case. Moreover, the TGI in assay [10] and in assay [11] was > 100 µM throughout.
